PMC4971055, “Identification and Characterization of the Corazonin Receptor and Possible Physiological Roles of the Corazonin-Signaling Pathway in Rhodnius prolixus” (Frontiers in Neuroscience, 2016)

Columns and labels:
Rhopr-CRZR-β = assay: bioluminescence (calcium mobilizing) functional receptor assay, Rhopr-CRZR-β in CHOK1-aeq cells; format: cell-based, Rhodnius prolixus; details: for bioluminescence response (receptor activation): every 5 s over 15 s
Method: (§1) The ORF of the two Rhopr-CRZR variants were amplified and a Kozak translation initiation sequence was introduced at the 5′ end using primers listed in Supplementary Table 2. The resulting product was cloned into pGEM-T Easy vector and subcloned into pIRES2-ZsGreen1 (Clontech, Mountain View, CA, USA).
(§2) Chinese hamster ovary (CHO) cells stably expressing aequorin (CHOK1-aeq) (Paluzzi et al., [2010]) were cultured in complete media (94% Dulbecco's Modified Eagle Medium Nutrient Mixture F12-Ham (DMEM/F12) (Life Technologies Corporation, Carlsbad, CA, USA), 5% heat-inactivated fetal bovine serum (FBS), and 1% penicillin/streptomycin) containing 200 μg/mL Geneticin. The cells were incubated at 37°C in 5% CO2, and then transiently transfected with the expression vector for the receptor transcript variants using X-tremeGENE 9 DNA transfection reagent (Roche Applied Science, Indianapolis, IN, USA) at a ratio of 2:1 (transfection reagent to expression vector) using the manufacturer recommended protocol. Cells were also transiently transfected with an empty expression vector as a negative control.
(§3) The bioluminescence assay was performed 72 h post-transfection. The cells were first harvested with PBS/EDTA solution and suspended in bovine serum albumin BSA media (DMEM/F12 containing 1% BSA and 1% penicillin/streptomycin). The cells were incubated in the dark for 4–5 h at room temperature with 5 μM (final concentration) coelenterazine h (Promega, Madison, WI, USA) and then diluted 10-fold using BSA media. Various peptide concentrations were prepared with BSA media and loaded in triplicates on an opaque 96-well microplate. Cells were loaded into each well using an automated injector unit and luminescence was recorded over 15 s using a Wallac Victor2 plate reader (Perkin Elmer, San Diego, CA, USA). The peptides used were Rhopr-CRZ (pQTFQYSRGWTNamide), Rhopr-AKH (pQLTFSTDWamide), and Rhopr-ACP (pQVTFSRDWNAamide). Wells containing only the BSA media served as a blank control while wells containing 25, 50, and 100 μM ATP served as positive controls. Dose-response curves were obtained by averaging three replica plates and the EC50 values were determined using Prism5 software.

Rhopr-CRZR-α = assay: bioluminescence (calcium mobilizing) functional receptor assay, Rhopr-CRZR-α in CHOK1-aeq cells; format: cell-based, Rhodnius prolixus; details: for bioluminescence response (receptor activation): every 5 s over 15 s
Method: as §1, §2, §3

Manduca sexta = tested on: Manduca sexta; parameters: method as in Kim et al., [2004]; details: ref Kim et al., [2004]; cited from earlier work
Bombyx. mori = tested on: Bombyx. mori; parameters: method as in Hua et al., [2000]; Hansen et al., [2010]; details: ref Hua et al., [2000], Hansen et al., [2010]; cited from earlier work
5th instar R. prolixus = details: in vitro in 5th instar R. prolixus; ref Patel et al., [2014]; cited from earlier work
Source text: The percent knockdown of Rhopr-CRZR transcript after injection of dsCRZR into adult R. prolixus was quantified by qPCR in the dorsal vessel. […] The physiological effects of this decrease in Rhopr-CRZR on heartbeat frequency was studied in vivo and in vitro in adult R. prolixus.

Periplaneta americana = tested on: Periplaneta americana; parameters: method as in Veenstra, [1989]; details: cockroach Periplaneta americana; ref Veenstra, [1989]; cited from earlier work
[1] = tested on: dorsal vessel of adult R. prolixus; assay: heartbeat assay in vitro; parameters: species or system Rhodnius prolixus; details: 10^−8 M Rhopr-CRZ; for increase in heartbeat frequency in vitro: compared to saline, n = 5
Method: Adult R. prolixus were anesthetized briefly with CO2 and injected with 2 μL of 2 μg/μL of dsCRZR or dsARG into the thorax using a 5 μL Hamilton syringe. Insects were left for 30 min at room temperature to recover and then kept in an incubator at 28°C on a 16 h: 8 h light/dark cycle. To determine knockdown efficiency, qPCR was performed 3 days post-injection.
Adult R. prolixus injected 3 days earlier with either dsCRZR or dsARG were dissected from the ventral surface under physiological saline (150 mM NaCl, 8.6 mM KCl, 2 mM CaCl2, 4 mM NaHCO3, and 8.5 mM MgCl2, 5 mM HEPES, pH 7.0). The digestive and reproductive systems were removed to expose the dorsal vessel. Electrodes attached to an impedance converter (UFI model 2991, Morro Bay, CA, USA) were positioned on either side of the dorsal vessel between the sixth and fifth abdominal segments. The heartbeat frequency was left to stabilize in 50 μL saline and the frequency of heartbeat measured from the traces recorded on a linear Flat-bed single channel chart recorder. The saline was then exchanged for 50 μL of 10^−8 M CRZ and the heartbeat frequency was again measured. The response to 10^−8 M CRZ was quantified by measuring the increase in heartbeat frequency compared to saline control.

Galleria mellonella = tested on: Galleria mellonella; parameters: method as in Hua et al., [2000]; Hansen et al., [2010]; details: ref Hua et al., [2000], Hansen et al., [2010]; cited from earlier work
Gryllus bimaculatus = tested on: Gryllus bimaculatus; parameters: method as in Hua et al., [2000]; Hansen et al., [2010]; details: ref Hua et al., [2000], Hansen et al., [2010]; cited from earlier work

## pQLTFSTDWamide [Rhopr-AKH, R. prolixus adipokinetic hormone, pQLTFSTDWamide, reference compound]
Rhopr-CRZR-β; Rhopr-CRZR-β, 10^−6 M, n = 3
  bioluminescence response (receptor activation): without effect
Rhopr-CRZR-α; Rhopr-CRZR-α, 10^−6 M, n = 3
  bioluminescence response (receptor activation): without effect

## pQTFQYSRGWTNamide [Rhopr-CRZ, Rhodnius prolixus corazonin neuropeptide, p…amide]
Manduca sexta
  ecdysis behavior: initiate ecdysis behavior
Bombyx. mori
  dark body coloration: did not have such an effect
5th instar R. prolixus
  heartbeat frequency: increase heartbeat frequency in a dose-dependent manner
Rhopr-CRZR-β; Rhopr-CRZR-β transiently expressed in CHOK1-aeq cells, coelenterazine h luminescence over 15 s, 72 h post-transfection, triplicates, three replica plates averaged
  EC50: 1 nM
Rhopr-CRZR-β; Rhopr-CRZR-β, during the first 5 s following activation, 10^−6 M, n = 3
  time of maximum luminescence: ≤ 5 s
Rhopr-CRZR-α; Rhopr-CRZR-α transiently expressed in CHOK1-aeq cells, coelenterazine h luminescence over 15 s, 72 h post-transfection, triplicates, three replica plates averaged
  EC50: 2.7 nM
Rhopr-CRZR-α; Rhopr-CRZR-α, during the first 5 s following activation, 10^−6 M, n = 3
  time of maximum luminescence: ≤ 5 s
Periplaneta americana
  heartbeat rate: increases the heartbeat rate
[1]; dsARG injected adults, vs dsCRZR unpaired t-test p = 0.0096
  increase in heartbeat frequency in vitro: 7.33 ± 0.8 beats/min
[1]; dsARG injected insects, unpaired t-test p = 0.0096
  heartbeat rate in vitro (in words): significantly increased the heartbeat rate
[1]; dsCRZR injected adults, vs dsARG unpaired t-test p = 0.0096
  increase in heartbeat frequency in vitro: 2 ± 0.9 beats/min
Galleria mellonella
  dark body coloration: did not have such an effect
Gryllus bimaculatus
  dark body coloration: did not have such an effect

## pQVTFSRDWNAamide [Rhopr-ACP, R. prolixus AKH/CRZ-related peptide, p[…]amide, reference compound]
Rhopr-CRZR-β; Rhopr-CRZR-β, 10^−6 M, n = 3
  bioluminescence response (receptor activation): without effect
Rhopr-CRZR-α; Rhopr-CRZR-α, 10^−6 M, n = 3
  bioluminescence response (receptor activation): without effect
